Test results reported in patent US9751837B2, “Kinase inhibitors” (RESPIVERT LIMITED, priority 2014, dated 2017).

The compounds below were run against GSK 3α (Homo sapiens (Human), UniProt P49840) (assay: GSK 3α enzyme inhibition (Method 2), Z-LYTE FRET). Conditions: read-out: IC50 Values for Enzyme Inhibition GSK3α.
Format: biochemical
Description: The enzyme inhibitory activities of compounds disclosed herein are determined by FRET using synthetic peptides labelled with both donor and acceptor fluorophores (Z-LYTE, Invitrogen Ltd., Paisley, UK).
The following two assay variants can be used for determination of GSK 3α inhibition.
The inhibitory activities of compounds of the invention against the GSK 3α enzyme isoform (Invitrogen), are evaluated by determining the level of activation/phosphorylation of the target peptide. The GSK3-α protein (500 ng/mL, 2.5 μL) is mixed with the test compound (2.5 μL at either 4 μg/mL, 0.4 μg/mL, 0.04 μg/mL, or 0.004 μg/mL) for 2 hr at RT. The FRET peptide (8 μM, 2.5 μL), which is a phosphorylation target for GSK3α, and ATP (40 μM, 2.5 μL) are then added to the enzyme/compound mixture and the resulting mixture incubated for 1 hr. Development reagent (protease, 5 μL) is added for 1 hr prior to detection in a fluorescence microplate reader (Varioskan® Flash, ThermoFisher Scientific).
In all cases, the site-specific protease cleaves non-phosphorylated peptide only and eliminates the FRET signal. Phosphorylation levels of each reaction are calculated using the ratio of coumarin emission (donor) over fluorescein emission (acceptor), for which high ratios indicate high phosphorylation and low ratios indicate low phosphorylation levels.
This method follows the same steps as Method 1 above, but utilises a shorter period of mixing of the test compound (105 minutes instead of 2 hours) with the GSK3-α protein. In addition, the concentrations of test compound employed are either 10 μg/mL, 1 μg/mL, 0.1 μg/mL, or 0.01 μg/mL

Sequence of GSK 3α (P49840 whole entry): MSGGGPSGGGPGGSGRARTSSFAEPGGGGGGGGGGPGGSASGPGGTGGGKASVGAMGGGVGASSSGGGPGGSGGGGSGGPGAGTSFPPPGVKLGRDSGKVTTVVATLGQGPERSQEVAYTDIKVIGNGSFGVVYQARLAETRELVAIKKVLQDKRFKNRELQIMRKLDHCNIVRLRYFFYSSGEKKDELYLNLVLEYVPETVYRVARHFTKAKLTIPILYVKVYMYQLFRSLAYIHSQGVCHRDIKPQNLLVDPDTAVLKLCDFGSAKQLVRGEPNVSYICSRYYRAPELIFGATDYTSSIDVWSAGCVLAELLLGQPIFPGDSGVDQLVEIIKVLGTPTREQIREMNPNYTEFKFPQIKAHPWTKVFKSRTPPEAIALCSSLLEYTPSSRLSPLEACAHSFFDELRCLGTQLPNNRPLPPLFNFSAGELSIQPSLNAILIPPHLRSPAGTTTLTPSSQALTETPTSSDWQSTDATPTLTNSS

| SMILES | IC50 [nM] |
| --- | --- |
| COc1cc(Nc2cc(Oc3ccc(NC(=O)Nc4cc(C(C)(C)C)cc(NS(C)(=O)=O)c4OC)c4ccccc34)ccn2)ccc1C(=O)NCCN1CCCOCC1 [17(ai), 4-[[4-[[4-[[5-tert-butyl-3-(methanesulfonamido)-2-methoxy-phenyl]carbamoylamino]-1-naphthyl]oxy]-2-pyridyl]amino]-2-methoxy-N-[2-(1,4-oxazepan-4-yl)ethyl]benzamide] | 4480 |
| COc1cc(Nc2cc(Oc3ccc(NC(=O)Nc4cc(C(C)(C)C)cc(NS(C)(=O)=O)c4OC)c4ccccc34)ccn2)ccc1S(=O)(=O)N(C)CCN1CCOCC1 [17(o), 1-[5-tert-butyl-3-(methanesulfonamido)-2-methoxy-phenyl]-3-[4-[[2-[3-methoxy-4-[methyl(2-morpholinoethyl)sulfamoyl]anilino]-4-pyridyl]oxy]-1-naphthyl]urea] | 3320 |
| COc1cc(Nc2cc(Oc3ccc(NC(=O)Nc4cc(C(C)(C)C)cc(NS(C)(=O)=O)c4OC)c4ccccc34)ccn2)ccc1C(=O)NCCCN1CCN(C)CC1 [17(aa), 4-[[4-[[4-[[5-tert-butyl-3-(methanesulfonamido)-2-methoxy-phenyl]carbamoylamino]-1-naphthyl]oxy]-2-pyridyl]amino]-2-methoxy-N-[3-(4-methylpiperazin-1-yl)propyl]benzamide] | 2930 |
| COc1cc(Nc2cc(Oc3ccc(NC(=O)Nc4cc(C(C)(C)C)cc(NS(C)(=O)=O)c4OC)c4ccccc34)ccn2)ccc1C(=O)NCCCN1CCCOCC1 [17(aj), 4-[[4-[[4-[[5-tert-butyl-3-(methanesulfonamido)-2-methoxy-phenyl]carbamoylamino]-1-naphthyl]oxy]-2-pyridyl]amino]-2-methoxy-N-[3-(1,4-oxazepan-4-yl)propyl]benzamide] | 2640 |
| COCCOCCOC[C@@H](C)NC(=O)c1ccc(Nc2cc(Oc3ccc(NC(=O)Nc4cc(C(C)(C)C)cc(NS(C)(=O)=O)c4OC)c4ccccc34)ccn2)cc1OC [17(g), 4-[[4-[[4-[[5-tert-butyl-3-(methanesulfonamido)-2-methoxy-phenyl]carbamoylamino]-1-naphthyl]oxy]-2-pyridyl]amino]-2-methoxy-N-[(1R)-2-[2-(2-methoxyethoxy)ethoxy]-1-methyl-ethyl]benzamide] | 4100 |
| COc1cc(Nc2cc(Oc3ccc(NC(=O)Nc4cc(C(C)(C)C)cc(C(N)=O)c4OC)c4ccccc34)ccn2)ccc1C(=O)NCCN1CCOCC1 [Example 4, 4-((4-((4-(3-(5-(tert-Butyl)-3-carbamoyl-2-methoxyphenyl)ureido)naphthalen-1-yl)oxy)pyridin-2-yl)amino)-2-methoxy-N-(2-morpholinoethyl)benzamide] | 2020 |
| COc1c(NC(=O)Nc2ccc(Oc3ccnc(Nc4ccc(OCCN5CCOCC5)c(C#N)c4)c3)c3ccccc23)cc(C(C)(C)C)cc1NS(C)(=O)=O [Example 9, N-(5-(tert-Butyl)-3-(3-(4-((2-((3-cyano-4-(2-morpholinoethoxy)phenyl)amino)pyridin-4-yl)oxy)naphthalen-1-yl)ureido)-2-methoxyphenyl)methanesulfonamide] | 4340 |
| COc1cc(Nc2cc(Oc3ccc(NC(=O)Nc4cc(C(C)(C)C)cc(NS(C)(=O)=O)c4OC)c4ccccc34)ccn2)ccc1C(=O)NCCN(C)CCO [17(ac), 4-[[4-[[4-[[5-tert-butyl-3-(methanesulfonamido)-2-methoxy-phenyl]carbamoylamino]-1-naphthyl]oxy]-2-pyridyl]amino]-N-[2-[2-hydroxyethyl(methyl)amino]ethyl]-2-methoxy-benzamide] | 3020 |
| COc1cc(Nc2cc(Oc3ccc(NC(=O)Nc4cc(C(C)(C)C)cc(NS(C)(=O)=O)c4OC)c4ccccc34)ccn2)ccc1C(=O)NCCN1C[C@@H](C)O[C@@H](C)C1 [17(c), 4-[[4-[[4-[[5-tert-butyl-3-(methanesulfonamido)-2-methoxy-phenyl]carbamoylamino]-1-naphthyl]oxy]-2-pyridyl]amino]-N-[2-[(2S,6R)yl]ethyl]-2-methoxy-benzamide] | > 11900 |
| COCCOCCOCCOc1ccc(Nc2cc(Oc3ccc(NC(=O)Nc4cc(C(C)(C)C)cc(NS(C)(=O)=O)c4OC)c4ccccc34)ccn2)cc1C#N [Example 8, N-(5-(tert-Butyl)-3-(3-(4-((2-((3-cyano-4-(2-(2-(2-methoxyethoxy)ethoxy)ethoxy)phenyl)amino)pyridin-4-yl)oxy)naphthalen-1-yl)ureido)-2-methoxyphenyl)methanesulfonamide] | 3770 |
| COc1cc(Nc2cc(Oc3ccc(NC(=O)Nc4cc(C(C)(C)C)cc(NS(C)(=O)=O)c4OC)c4ccccc34)ccn2)ccc1S(=O)(=O)N(C)CCCN1CCOCC1 [Example 13, 1-[5-tert-Butyl-3-(methanesulfonamido)-2-methoxy-phenyl]-3-[4-[[2-[3-methoxy-4-[methyl(3-morpholinopropyl)sulfamoyl]anilino]-4-pyridyl]oxy]-1-naphthyl]urea] | 3630 |
| COc1cc(Nc2cc(Oc3ccc(NC(=O)Nc4cc(C(C)(C)C)cc(NS(C)(=O)=O)c4OC)c4ccccc34)ccn2)ccc1C(=O)NCCN1CCCC1 [17(q), 4-[[4-[[4-[[5-tert-butyl-3-(methanesulfonamido)-2-methoxy-phenyl]carbamoylamino]-1-naphthyl]oxy]-2-pyridyl]amino]-2-methoxy-N-(2-pyrrolidin-1-ylethyl)benzamide] | 1980 |
| COCCOCCOC[C@H](C)NC(=O)c1ccc(Nc2cc(Oc3ccc(NC(=O)Nc4cc(C(C)(C)C)cc(NS(C)(=O)=O)c4OC)c4ccccc34)ccn2)cc1OC [17(h), 4-[[4-[[4-[[5-tert-butyl-3-(methanesulfonamido)-2-methoxy-phenyl]carbamoylamino]-1-naphthyl]oxy]-2-pyridyl]amino]-2-methoxy-N-[(1S)-2-[2-(2-methoxyethoxy)ethoxy]-1-methyl-ethyl]benzamide] | 4390 |
| COc1cc(Nc2cc(Oc3ccc(NC(=O)Nc4cc(C(C)(C)C)cc(NS(C)(=O)=O)c4OC)c4ccccc34)ccn2)ccc1C(=O)NCCN1CCOC(C)(C)C1 [17(d), 4-[[4-[[4-[[5-tert-butyl-3-(methanesulfonamido)-2-methoxy-phenyl]carbamoylamino]-1-naphthyl]oxy]-2-pyridyl]amino]-N-[2-(2,2-dimethylmorpholin-4-yl)ethyl]-2-methoxy-benzamide] | > 11900 |

Now those with a lower IC50, led by results:

| IC50 [nM] | SMILES |
| --- | --- |
| 1300 | COCCOCCOCC[S+]([O-])c1ccc(Nc2cc(Oc3ccc(NC(=O)Nc4cc(C(C)(C)C)cc(NS(C)(=O)=O)c4OC)c4ccccc34)ccn2)cc1OC (stereo not drawn) [Example 11, N-(5-(tert-Butyl)-2-methoxy-3-(3-(4-((2-((3-methoxy-4-((2-(2-(2-methoxyethoxy)ethoxy)ethyl)sulfinyl)phenyl)amino)pyridin-4-yl)oxy)naphthalen-1-yl)ureido)phenyl)methanesulfonamide] |
| 596 | COc1cc(Nc2cc(Oc3ccc(NC(=O)Nc4cc(C(C)(C)C)cc(NS(C)(=O)=O)c4OC)c4ccccc34)ccn2)ccc1C(=O)N(C)CCN1CCOCC1 [17(ab), 4-[[4-[[4-[[5-tert-butyl-3-(methanesulfonamido)-2-methoxy-phenyl]carbamoylamino]-1-naphthyl]oxy]-2-pyridyl]amino]-2-methoxy-N-methyl-N-(2-morpholinoethyl)benzamide] |
| 140 | COc1c(NC(=O)Nc2ccc(Oc3ccnc(Nc4ccc(C(=O)O)cc4)c3)c3ccccc23)cc(C(C)(C)C)cc1NS(C)(=O)=O [17(t), 4-[[4-[[4-[[5-tert-butyl-3-(methanesulfonamido)-2-methoxy-phenyl]carbamoylamino]-1-naphthyl]oxy]-2-pyridyl]amino]benzoic acid] |
| 394 | COc1cc(Nc2cc(Oc3ccc(NC(=O)Nc4cc(C(C)(C)C)cc(NS(C)(=O)=O)c4OC)c4ccccc34)ccn2)ccc1C(=O)NCCCCC(=O)O [17(s), 5-[[4-[[4-[[4-[[5-tert-butyl-3-(methanesulfonamido)-2-methoxy-phenyl]carbamoylamino]-1-naphthyl]oxy]-2-pyridyl]amino]-2-methoxy-benzoyl]amino]pentanoic acid] |
| 594 | COc1cc(Nc2nccc(Oc3ccc(NC(=O)Nc4cc(C(C)(C)C)cc(NS(C)(=O)=O)c4OC)c4ccccc34)n2)ccc1C(=O)NCCN1CCOCC1 [17(i), 4-[[4-[[4-[[5-tert-butyl-3-(methanesulfonamido)-2-methoxy-phenyl]carbamoylamino]-1-naphthyl]oxy]pyrimidin-2-yl]amino]-2-methoxy-N-(2-morpholinoethyl)benzamide] |
| 1900 | COCCOCCOCCNC(=O)c1ccc(Nc2cc(Oc3ccc(NC(=O)Nc4cc(C(C)(C)C)cc(C(N)=O)c4OC)c4ccccc34)ccn2)cc1OC [Example 6, 4-((4-((4-(3-(5-(tert-Butyl)-3-carbamoyl-2-methoxyphenyl)ureido)naphthalen-1-yl)oxy)pyridin-2-yl)amino)-2-methoxy-N-(2-(2-(2-methoxyethoxy)ethoxy)ethyl)benzamide] |
| 1100 | COc1cc(Nc2cc(Oc3ccc(NC(=O)Nc4cc(C(C)(C)C)cc(NS(C)(=O)=O)c4OC)c4ccccc34)ccn2)ccc1C(=O)NCCN1CC[S+]([O-])CC1 [Example 7, 4-((4-((4-(3-(5-(tert-Butyl)-2-methoxy-3-(methylsulfonamido)phenyl)ureido)naphthalen-1-yl)oxy)pyridin-2-yl)amino)-2-methoxy-N-(2-(1-oxidothiomorpholino)ethyl)benzamide] |
